From patent publication US11530216B2, “Deuterated colony stimulating factor-1 receptor (CSF-1R) inhibitors” (Genzyme Corporation, priority 2020, dated 2022)
Read-outs that look alike come from different tables or passages of the source.

Assays:
[1] = Human hepatocyte intrinsic clearance; type: in vitro ADME; settings: for hepatocyte CLint at 1 μM / CLint scaled at 1 μM: human, hepatocytes
Protocol: (§1) Incubations were performed in 0.5 million hepatocytes cells/mL at 1 μM concentration of test compound in duplicate with rat, human, dog, monkey, or mouse hepatocytes, and the concentration-time course of test compound depletion was determined after withdrawing samples from the incubation at assay time points followed by liquid chromatography with tandem mass spectrometry analysis. An organic solvent was used to terminate incubations.
(§2) These available known AO substrates along with the test compounds were analyzed using three in vitro systems (pooled human liver cytosol, liver S-9 fractions and human hepatocytes isolated from livers perfused with HTK media). Scaled unbound intrinsic clearances were calculated for the test compounds/new chemical entities and were compared to the in vivo unbound intrinsic clearances of the known AO substrates.

[2] = Human liver cytosol intrinsic clearance; type: in vitro ADME; settings: for microsomal CLint at 1 μM / CLint scaled at 1 μM: human, cytosol
Protocol: as §1, with “1 mg/mL human liver cytosol with high aldehyde oxidase (AO)/xanthine oxidase (XO) activity or 2.5 mg/mL human liver S-9 fraction with high AO/XO activity” for “0.5 million hepatocytes cells/mL”, “duplicate,” for “duplicate with rat, human, dog, monkey, or mouse hepatocytes,”
as §2

[3] = Human liver S-9 intrinsic clearance; type: in vitro ADME; settings: for microsomal CLint at 1 μM / CLint scaled at 1 μM: human; for CLint scaled at 1 μM: s9; for Human Liver S-9 Intrinsic Clearance _1 / Human Liver S-9 Intrinsic Clearance _2: 2.5 mg/mL S-9, 1 μM
Protocol: as §1, with “1 mg/mL human liver cytosol with high aldehyde oxidase (AO)/xanthine oxidase (XO) activity or 2.5 mg/mL human liver S-9 fraction with high AO/XO activity” for “0.5 million hepatocytes cells/mL”, “duplicate,” for “duplicate with rat, human, dog, monkey, or mouse hepatocytes,”
as §2

[4] = known AO substrates, human, literature; cited from earlier work
[5] = tested on: MCP-1 production in primary murine microglial cells; assay: MCP-1 ELISA, primary mouse microglia after CSF-1 stimulation; type: cell-based; settings: primary murine microglia, 100 ng/mL CSF-1 24 hours
Protocol: Primary mouse microglia were suspended at a concentration of 5×10^5 cells/mL and 100 μL of this cell suspension was added to the inner 60 wells of three 96-well plates. Microglia cells were allowed to rest overnight at 37° C., 5% CO2. […] Cells were then stimulated with 100 ng/mL recombinant mouse CSF-1 for 24 hours. After stimulation, the culture supernatant was removed from each well and aliquoted into two different 96-well plates for subsequent ELISA assays. Plates were fixed with 4% PFA for future immunocytochemistry analysis.

primary murine microglia = assay: Immunostaining of primary microglia (Iba1+ area, DAPI+ nuclei) after CSF-1 stimulation; type: cell-based, mouse; settings: for IC50: primary murine microglia, CSF-1 stimulation
Protocol: Primary mouse microglia were suspended at a concentration of 5×10^5 cells/mL and 100 μL of this cell suspension was added to the inner 60 wells of three 96-well plates. Microglia cells were allowed to rest overnight at 37° C., 5% CO2. […] Cells were then stimulated with 100 ng/mL recombinant mouse CSF-1 for 24 hours. After stimulation, the culture supernatant was removed from each well and aliquoted into two different 96-well plates for subsequent ELISA assays. Plates were fixed with 4% PFA for future immunocytochemistry analysis. Following the stimulation, cells were fixed with 4% PFA for 20 minutes at room temperature. Cells were then rinsed in PBS, washed 3×5 minutes in 0.2% PBT (0.2% Triton X-100 in PBS) and blocked with 10% donkey serum/0.2% PBT for 1 hour at room temperature. […] After staining, plates were imaged on the IN Cell Analyzer 2200 with 9 fields of view acquired per well. […] A one-way ANOVA was used to determine the statistical significance of differences between samples. […] Following a microglial stimulation, immunocytochemistry was completed with Iba1, Ki67, and DAPI to determine microglial morphology, proliferative state, and number. InCell imaging microsope and analysis software was used to quantify Iba1^+ area, and the number of DAPI^+ nuclei within the cultures.

[6] = raw data, AO calibration set, read-out: Human Hepatocytes Intrinsic Clearance
[7] = scaled data, read-out: Human Hepatocytes in vitro scaled Intrinsic Clearance
[8] = 1 mg/mL cytosol, 1 μM, replicate 1, read-out: Human Liver Cytosol Intrinsic Clearance _1
[9] = 1 mg/mL cytosol, 1 μM, replicate 2, read-out: Human Liver Cytosol Intrinsic Clearance _2
[10] = scaled data, read-out: Human Liver Cytosol in vitro scaled Intrinsic Clearance
[11] = s9, 2.5 mg/mL S-9, 1 μM, replicate 1, read-out: Human Liver S-9 Intrinsic Clearance _1
[12] = s9, 2.5 mg/mL S-9, 1 μM, replicate 2, read-out: Human Liver S-9 Intrinsic Clearance _2
[13] = scaled data, read-out: Human Liver S-9 in vitro scaled Intrinsic Clearance
[14] = 1 mg/mL cytosol, 1 μM, replicate 1
[15] = 1 mg/mL cytosol, 1 μM, replicate 2
[16] = Human Liver Cytosol Intrinsic Clearance _1
[17] = Human Liver Cytosol Intrinsic Clearance _2

SMILES	Estimated Free in vivo Intrinsic Clearance (Ref) [4]	Human Hepatocytes Intrinsic Clearance ([1]; raw data, AO calibration set) [μL/min/10^6 cells]	Human Hepatocytes in vitro scaled Intrinsic Clearance ([1]; scaled data) [L/h/kg]	Human Liver Cytosol Intrinsic Clearance _1 [2, 14] [μL/min/mg protein]	Human Liver Cytosol Intrinsic Clearance _2 [2, 15] [μL/min/mg protein]	Human Liver Cytosol in vitro scaled Intrinsic Clearance ([2]; scaled data) [L/h/kg]	Human Liver S-9 Intrinsic Clearance _1 ([3]; replicate 1) [μL/min/mg protein]	Human Liver S-9 Intrinsic Clearance _2 ([3]; replicate 2) [μL/min/mg protein]	Human Liver S-9 in vitro scaled Intrinsic Clearance ([3]; scaled data) [L/h/kg]	CLint scaled at 1 μM [1] [L/h/kg]	hepatocyte CLint at 1 μM [1] [µL/min/1e6 cells]	CLint scaled at 1 μM [2] [L/h/kg]	microsomal CLint at 1 μM [2, 16] [µL/min/mg]	microsomal CLint at 1 μM [2, 17] [µL/min/mg]	further results
OCCn1cc(-c2cnc3nnn(Cc4ccc5ncccc5c4)c3n2)cn1 [PF-4217903]	46	–	–	–	–	–	–	–	–	–	–	–	–	–	hepatocyte CLint at 1 μM [1, 6]: 4.08 µL/min/1e6 cells; CLint scaled at 1 μM [1, 7]: 0.624 L/h/kg; microsomal CLint at 1 μM [2, 8]: < 0.7 µL/min/mg; microsomal CLint at 1 μM [2, 9]: < 0.7 µL/min/mg; CLint scaled at 1 μM [2, 10]: < 0.09 L/h/kg; microsomal CLint at 1 μM [3, 11]: < 1.1 µL/min/mg; microsomal CLint at 1 μM [3, 12]: < 1.1 µL/min/mg; CLint scaled at 1 μM [3, 13]: < 0.204 L/h/kg
CC[C@H]1OC(=O)[C@H](C)C(=O)[C@H](C)[C@@H](O[C@@H]2O[C@H](C)C[C@H](N(C)C)[C@H]2O)[C@](C)(OC)C[C@@H](C)C(=O)[C@H](C)[C@H]2N(C3CN([C@H](C)c4ccnc5ncccc45)C3)C(=O)O[C@]12C [PF-945863]	170	10.7	1.63	8.2	6.9	0.924	6.78	6.22	1.21	–	–	–	–	–	–
[2H]c1nc2cccnc2n1Cc1cc(OC)c2c(c1)O[C@H](C)[C@@H](c1ccc(OC)nc1)O2 [Compound 5, 3-(((2R,3R)-8-methoxy-2-(6-methoxypyridin-3-yl)-3-methyl-2,3-dihydrobenzo[b][1,4]dioxin-6-yl)methyl)-3H-imidazo[4,5-b]pyridine-2-d]	–	–	–	–	–	–	–	–	–	1.18	7.74	0.132	0.7	1.4	CLint scaled at 1 μM [3]: 0.216 L/h/kg; microsomal CLint at 1 μM ([3]; s9, Human Liver S-9 Intrinsic Clearance _1): < 1.1 µL/min/mg; microsomal CLint at 1 μM ([3]; s9, Human Liver S-9 Intrinsic Clearance _2): < 1.1 µL/min/mg
CN(C)CCNC(=O)c1cccc2cc3ccccc3nc12 [DACA]	3600	49.1	7.5	46.2	46.8	5.79	19.0	17.7	3.39	–	–	–	–	–	–
CN(Cc1cnc2nc(N)nc(N)c2n1)c1ccc(C(=O)N[C@@H](CCC(=O)O)C(=O)O)cc1 [methotrexate]	0.44	<2.7	<0.414	<0.7	<0.7	<0.09	<1.1	<1.1	<0.204	–	–	–	–	–	–
[2H]c1ccc2nc([2H])n(Cc3cc(OC)c4c(c3)O[C@@H](C)[C@H](c3ccc(OC)nc3)O4)c2n1 (racemic) [Compound 2, (+/−)-3-(((trans)-8-methoxy-2-(6-methoxypyridin-3-yl)-3-methyl-2,3-dihydrobenzo[b][1,4]dioxin-6-yl)methyl)-3H-imidazo[4,5-b]pyridine-2,5-d2]	–	–	–	–	–	–	–	–	–	0.972	6.36	0.258	1.5	1.7	–
[2H]c1ccc2ncn(Cc3cc(OC)c4c(c3)O[C@@H](C)[C@H](c3ccc(OC)nc3)O4)c2n1 (racemic) [Compound 1, (+/−)-3-(((trans)-8-methoxy-2-(6-methoxypyridin-3-yl)-3-methyl-2,3-dihydrobenzo[b][1,4]dioxin-6-yl)methyl)-3H-imidazo[4,5-b]pyridine-5-d]	–	–	–	–	–	–	–	–	–	1.57	10.3	0.414	3.4	3.3	–
CCNC(=O)OC1CCN(c2nncc3cc(OC)c(OC)cc23)CC1 [carbazeran]	13000	–	–	–	–	–	–	–	–	–	–	–	–	–	–
FC(F)(F)c1ccc(CNc2ccc(Cc3c[nH]c4ncc(Cl)cc34)cn2)cn1 [PLX3397, pexidartinib]	–	–	–	–	–	–	–	–	–	–	–	–	–	–	IC50 ([5]; read-out: IC50, MCP-1 production): 0.0174 µM; MCP-1 production ([5]; 3.125-400 nM): significantly reduced MCP-1 production in a concentration dependent manner; Iba1+ area (primary murine microglia; CSF-1 stimulation increases Iba1+ area): significantly abrogated this effect in a concentration dependent manner; number of cells (DAPI+ cells) (primary murine microglia; CSF-1 stimulation increases cell number): reduce this number in a concentration dependent manner; IC50 (primary murine microglia; read-out: IC50 for DAPI (DAPI+ cell number)): 0.0682 µM; IC50 (primary murine microglia; read-out: IC50 for Iba1 (Iba1+ area)): 0.0504 µM
Nc1nc(OCc2ccccc2)c2nc[nH]c2n1 [O6-benzylguanine]	360	13.6	2.08	5.6	4.9	0.642	6.66	5.97	1.17	–	–	–	–	–	–
CCN(C(C)=O)c1cccc(-c2ccnc3c(C#N)cnn23)c1 [zaleplon]	65	–	–	–	–	–	–	–	–	–	–	–	–	–	hepatocyte CLint at 1 μM [1, 6]: 7.53 µL/min/1e6 cells; CLint scaled at 1 μM [1, 7]: 1.15 L/h/kg; microsomal CLint at 1 μM [2, 8]: 3.1 µL/min/mg; microsomal CLint at 1 μM [2, 9]: 3.4 µL/min/mg; CLint scaled at 1 μM [2, 10]: 0.36 L/h/kg; microsomal CLint at 1 μM [3, 11]: 2.11 µL/min/mg; microsomal CLint at 1 μM [3, 12]: 3.32 µL/min/mg; CLint scaled at 1 μM [3, 13]: 0.426 L/h/kg
N=C(N)NC(=O)c1cnn(-c2cccc3ncccc23)c1C1CC1 [zoniporide]	180	–	–	–	–	–	–	–	–	2.03	13.3	0.744	–	–	CLint scaled at 1 μM [3]: 1.12 L/h/kg
[2H]c1nc2cccnc2n1C([2H])([2H])c1cc(OC)c2c(c1)O[C@@H](C)[C@H](c1ccc(OC)nc1)O2 (racemic) [Compound 4, (+/−)-3-(((trans)-8-methoxy-2-(6-methoxypyridin-3-yl)-3-methyl-2,3-dihydrobenzo[b][1,4]dioxin-6-yl)methyl-d2)-3H-imidazo[4,5-b]pyridine-2-d]	–	–	–	–	–	–	–	–	–	1.14	7.45	0.204	1.2	2.1	–
